Three compounds from patent EP3092214B1, “NITROSAMINE/NITRITE INHIBITION IN TERTIARY ALKYLAMINE OXIDE COMPOSITIONS” (EOC Surfactants N.V., priority 2014, dated 2015) can be followed below.

Data set [1] in a line: Synthesis tests of cocamidopropylamine oxide with candidate inhibitors: colour of the final product. Format: physicochemical. As to conditions: additive 0,1% by weight on amido-amine. The method, then: (§1) To a three-neck flask of 1000 ml, demi-water and citric acid were added. The acid was added in order to keep the pH of the reaction mixture below 9. Subsequently, cocamidopropylamine and hydrogen peroxide were added. The reaction mixture was heated to a desired temperature of either 50 °C or 70 °C. Upon reaching the desired reaction temperature, sodium bicarbonate was added. The pH of the reaction mixture is maintained between 7,0 and 7,5. If necessary, NaOH is added.
(§2) In the examples described below, different additives were tested for their ability to inhibit the formation of nitrosamines. Each time, during the reaction, an amount of inhibitor was added which corresponds to 0,1% by weight of the amount of added amido-amine raw material.

The conditions of data set [2]: for Content of nitrosamines: cocamidopropylamine oxide synthesis, additive 0,1% by weight on amido-amine; for inhibitory effect on the formation of nitrosamines: result in words, tertiary alkylamine oxide (cocamidopropylamine oxide) synthesis. The method, then: For the measurement, gas chromatography in combination with a thermal energy analyzer (GC-TEA) is used. In measurements using this technique, the so-called apparent total N-nitroso compounds (ATNC) are determined by a chemical denitrosation and detection of the released […] in µg/kg (ppb). This content is also determined by denitrosation of an N-nitrosodiisopropanolamine (NDiPLA) calibration standard.
as §1, §2
The nitrosamine content was determined with the aid of a chemical denitrosation technique and measurement with a thermal energy analyzer. The detection limit of the method used was 50 µg total content of N-nitroso compounds/kg.

Read-outs that look alike come from different tables or passages of the source.

As for `O=C(O)CN(CCN(CC(=O)O)CC(=O)O)CCN(CC(=O)O)CC(=O)O` [DTPA Na, diethylene triamine pentaacetic acid], in data set [1] (Temp 50 °C), the Colour is given as 27 Apha.

Take `O=P(O)(O)CN(CCN(CP(=O)(O)O)CP(=O)(O)O)CCN(CP(=O)(O)O)CP(=O)(O)O` [DTPMP, diethylenetriamine penta(methylene phosphonic acid)]: the Colour is on record as 50 Apha in data set [1] (Temp 50 °C) and 24 Apha in data set [1] (Temp 70 °C). The Content of nitrosamines in data set [2] (Temp 50 °C) was found to be 1637 ppb; in data set [2] (Temp 70 °C), 765 ppb. For the same compound, the “inhibitory effect on the formation of nitrosamines” value in data set [2] is on record as “insufficiently able to inhibit the formation of nitrosamines”.

For the compound `O=C(O)CN(CCN(CC(=O)O)CC(=O)O)CC(=O)O` [EDTA, ethylenediaminetetraacetic acid], the Colour is listed as 27 Apha in data set [1] (Temp 50 °C) and 37 Apha in data set [1] (Temp 70 °C). The results for the Content of nitrosamines in data set [2] (Temp 50 °C) and in data set [2] (Temp 70 °C) were 660 ppb and 1550 ppb, respectively. Moreover, in data set [2], the “inhibitory effect on the formation of nitrosamines” value is “insufficiently able to inhibit the formation of nitrosamines”.
